Experimental data taken from ChEMBL document CHEMBL1201862, “PubChem BioAssay data set” (2004).
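Method: 48-hour compound exposure of cells in 96-well plates, five concentrations, linear interpolation of endpoints. Abbreviation: GI50, concentration required for 50% inhibition of growth.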 Activity calls are given as the source filed them. No stated cut-off is given here; in the data, active = GI50 up to about 1.1 µM and inactive = higher.

Experiments:
Test in all cases: growth of human tumour cells (NCI), 48 h
A498 = test system: A498
SW-620 = test system: SW-620
SK-MEL-28 = test system: SK-MEL-28
CAKI-1 = test system: CAKI-1
SF-539 = test system: SF-539
NCI-H23 = test system: NCI-H23
DU-145 = test system: DU-145
SF-268 = test system: SF-268
HOP-62 = test system: HOP-62
OVCAR-8 = test system: OVCAR-8
M14 = test system: M14
TK-10 = test system: TK-10
BT-549 = test system: BT-549
SF-295 = test system: SF-295
NCI-H460 = test system: NCI-H460
HCC 2998 = test system: HCC 2998
NCI-H226 = test system: NCI-H226
SR = test system: SR
CCRF-CEM = test system: CCRF-CEM

Structure (SMILES) | GI50 (A498) | GI50 (SW-620) | GI50 (SK-MEL-28) | GI50 (CAKI-1) | GI50 (SF-539) | GI50 (NCI-H23) | GI50 (DU-145) | GI50 (SF-268) | GI50 (HOP-62) | GI50 (OVCAR-8) | GI50 (M14) | GI50 (TK-10) | GI50 (BT-549) | GI50 (SF-295) | GI50 (NCI-H460) | GI50 (HCC 2998) | GI50 (NCI-H226) | GI50 (SR) | GI50 (CCRF-CEM)
O=S(=O)(c1cnccc1N1CCN(CCO)CC1)N1CCCC1 | > 100 µM (inactive) | > 100 µM (inactive) | > 100 µM (inactive) | > 100 µM (inactive) | > 100 µM (inactive) | > 100 µM (inactive) | > 100 µM (inactive) | > 100 µM (inactive) | > 100 µM (inactive) | > 100 µM (inactive) | > 100 µM (inactive) | > 100 µM (inactive) | > 100 µM (inactive) | > 100 µM (inactive) | > 100 µM (inactive) | > 100 µM (inactive) | > 100 µM (inactive) | > 100 µM (inactive) | 
O=C1C(CN2CCCC2)CCCC1CN1CCCC1 (stereo not drawn) | 20.7 µM (inactive) | 0.129 µM (active) | 3.85 µM (inactive) | 1.64 µM (inactive) | 7.36 µM (inactive) | 1.95 µM (inactive) | 19.8 µM (inactive) | 25.8 µM (inactive) | > 49.8 µM (inactive) | 4.37 µM (inactive) | 1.74 µM (inactive) | 2.19 µM (inactive) | 1.87 µM (inactive) | > 38.7 µM (inactive) | 22.8 µM (inactive) | 18.3 µM (inactive) | 22.1 µM (inactive) | 3.04 µM (inactive) | 0.0318 µM (active)
COc1ccc(/C=C/C(=O)c2cccc(C(=O)/C=C/c3ccc(OC)c(OC)c3)n2)cc1OC | > 91.2 µM (inactive) | 3.53 µM (inactive) | 15.8 µM (inactive) | > 57.9 µM (inactive) | 14.4 µM (inactive) | 29.2 µM (inactive) | > 100 µM (inactive) | 36.9 µM (inactive) | > 89.7 µM (inactive) | 3.27 µM (inactive) | 32.7 µM (inactive) | > 100 µM (inactive) | 6.15 µM (inactive) | > 73.8 µM (inactive) | 96.8 µM (inactive) | > 100 µM (inactive) | > 100 µM (inactive) | 2.91 µM (inactive) | 1.05 µM (active)
COc1cc2[nH]c(=O)[nH]c2c2c(C)c[nH]c12 | > 100 µM (inactive) | > 100 µM (inactive) | > 100 µM (inactive) | > 100 µM (inactive) |  | > 100 µM (inactive) | > 100 µM (inactive) | > 100 µM (inactive) | > 100 µM (inactive) | > 100 µM (inactive) | > 100 µM (inactive) | > 100 µM (inactive) | > 100 µM (inactive) | > 100 µM (inactive) | > 100 µM (inactive) | > 100 µM (inactive) | > 100 µM (inactive) | > 100 µM (inactive) | > 100 µM (inactive)
Clc1ccc(-c2cc(-c3cc4cc(Br)ccc4nc3Cl)on2)cc1 | 11.7 µM (inactive) | 10.4 µM (inactive) | 9.62 µM (inactive) | 10.9 µM (inactive) | 9.08 µM (inactive) | 17.1 µM (inactive) | 18.8 µM (inactive) | 13.4 µM (inactive) | 6 µM (inactive) | 18.7 µM (inactive) | 12.5 µM (inactive) |  | 20.2 µM (inactive) | 11.3 µM (inactive) | 10.1 µM (inactive) | 10.3 µM (inactive) | 13.3 µM (inactive) | 10.4 µM (inactive) | 11.5 µM (inactive)
COC(=O)c1ccccc1/C=C1\Cc2ccc3ccccc3c2C1C (stereo not drawn) | > 100 µM (inactive) | 93.3 µM (inactive) | > 100 µM (inactive) | > 100 µM (inactive) | > 100 µM (inactive) |  | > 100 µM (inactive) | > 100 µM (inactive) |  | > 100 µM (inactive) | 37.4 µM (inactive) | > 100 µM (inactive) | 51.8 µM (inactive) | 70.8 µM (inactive) | > 100 µM (inactive) | > 100 µM (inactive) | > 100 µM (inactive) | 32.7 µM (inactive) | 45.8 µM (inactive)
O=C(/C=C/c1ccccc1)CCC1C(=O)c2ccccc2C1=O | > 100 µM (inactive) | > 100 µM (inactive) | > 100 µM (inactive) | > 100 µM (inactive) | > 100 µM (inactive) | > 100 µM (inactive) | > 100 µM (inactive) | > 100 µM (inactive) |  | > 100 µM (inactive) | > 100 µM (inactive) |  | > 100 µM (inactive) | > 100 µM (inactive) | > 100 µM (inactive) | > 100 µM (inactive) | > 100 µM (inactive) | 66.2 µM (inactive) | > 100 µM (inactive)
CCOc1ccc(/N=C/C=C(\Cl)c2ccc3ccccc3c2)cc1 | > 58.3 µM (inactive) | 7.33 µM (inactive) | 11.8 µM (inactive) | 18.8 µM (inactive) | 21.2 µM (inactive) | 10.6 µM (inactive) | 16.7 µM (inactive) | 17.9 µM (inactive) | 15.3 µM (inactive) | 16.2 µM (inactive) | 20.8 µM (inactive) | 17.5 µM (inactive) | 20.2 µM (inactive) | 18.8 µM (inactive) | 20 µM (inactive) | 0.022 µM (active) | 22.4 µM (inactive) | 2.52 µM (inactive) | 3.56 µM (inactive)
C1=N\c2ccc(cc2)/N=C\c2ccccc2OCc2cccc(n2)COc2ccccc2/1 | > 100 µM (inactive) | > 100 µM (inactive) |  | > 100 µM (inactive) | 10.7 µM (inactive) | > 100 µM (inactive) | > 100 µM (inactive) |  | 30.1 µM (inactive) | > 100 µM (inactive) | > 100 µM (inactive) | > 100 µM (inactive) | > 100 µM (inactive) | 76.9 µM (inactive) | > 100 µM (inactive) | > 100 µM (inactive) | > 100 µM (inactive) | > 100 µM (inactive) | > 100 µM (inactive)
CC1(C)OC(=O)N(c2ccccc2)C12C=Cc1cc([N+](=O)[O-])cc([N+](=O)[O-])c1O2 (stereo not drawn) | 81.3 µM (inactive) | > 100 µM (inactive) | > 100 µM (inactive) | > 100 µM (inactive) |  | > 100 µM (inactive) | > 100 µM (inactive) | 98.9 µM (inactive) | 97.9 µM (inactive) | > 100 µM (inactive) | 61.5 µM (inactive) | > 100 µM (inactive) | > 100 µM (inactive) | > 100 µM (inactive) | > 100 µM (inactive) | > 100 µM (inactive) | > 100 µM (inactive) | > 100 µM (inactive) | > 100 µM (inactive)
CCCCCCNC(=O)c1cc(CCc2cc(O)ccc2O)ccc1O | 4.24 µM (inactive) | 7.66 µM (inactive) | 2.74 µM (inactive) | 3.32 µM (inactive) |  | 7.89 µM (inactive) | 6.78 µM (inactive) | 2.77 µM (inactive) | 6.24 µM (inactive) | 3.56 µM (inactive) | 6.05 µM (inactive) | 2.96 µM (inactive) | 1.94 µM (inactive) | 14.1 µM (inactive) | 8.57 µM (inactive) | 3.15 µM (inactive) | 4.23 µM (inactive) | 2.23 µM (inactive) | 1.92 µM (inactive)
